Measurements from the kinase profiling compilation of Christmann-Franck et al. (2016).
Values belong to the compound of their own block, whether it stands above or below them.

Tests used:
Conditions in all cases: compound 10.0 µM
[1] = target: KDR (human) (UniProt P35968)
[2] = target: PIM2 (human) (UniProt Q9P1W9)
[3] = target: MET (human) (UniProt P08581)
[4] = target: PRKG1 (human) (UniProt Q13976)
[5] = target: MARK1 (human) (UniProt Q9P0L2)
[6] = target: ABL1 (human) (UniProt P00519)
[7] = target: MAP4K4 (human) (UniProt O95819)
[8] = target: IGF1R (human) (UniProt P08069)
Sequence of IGF1R (human) (P08069 whole entry, looked up): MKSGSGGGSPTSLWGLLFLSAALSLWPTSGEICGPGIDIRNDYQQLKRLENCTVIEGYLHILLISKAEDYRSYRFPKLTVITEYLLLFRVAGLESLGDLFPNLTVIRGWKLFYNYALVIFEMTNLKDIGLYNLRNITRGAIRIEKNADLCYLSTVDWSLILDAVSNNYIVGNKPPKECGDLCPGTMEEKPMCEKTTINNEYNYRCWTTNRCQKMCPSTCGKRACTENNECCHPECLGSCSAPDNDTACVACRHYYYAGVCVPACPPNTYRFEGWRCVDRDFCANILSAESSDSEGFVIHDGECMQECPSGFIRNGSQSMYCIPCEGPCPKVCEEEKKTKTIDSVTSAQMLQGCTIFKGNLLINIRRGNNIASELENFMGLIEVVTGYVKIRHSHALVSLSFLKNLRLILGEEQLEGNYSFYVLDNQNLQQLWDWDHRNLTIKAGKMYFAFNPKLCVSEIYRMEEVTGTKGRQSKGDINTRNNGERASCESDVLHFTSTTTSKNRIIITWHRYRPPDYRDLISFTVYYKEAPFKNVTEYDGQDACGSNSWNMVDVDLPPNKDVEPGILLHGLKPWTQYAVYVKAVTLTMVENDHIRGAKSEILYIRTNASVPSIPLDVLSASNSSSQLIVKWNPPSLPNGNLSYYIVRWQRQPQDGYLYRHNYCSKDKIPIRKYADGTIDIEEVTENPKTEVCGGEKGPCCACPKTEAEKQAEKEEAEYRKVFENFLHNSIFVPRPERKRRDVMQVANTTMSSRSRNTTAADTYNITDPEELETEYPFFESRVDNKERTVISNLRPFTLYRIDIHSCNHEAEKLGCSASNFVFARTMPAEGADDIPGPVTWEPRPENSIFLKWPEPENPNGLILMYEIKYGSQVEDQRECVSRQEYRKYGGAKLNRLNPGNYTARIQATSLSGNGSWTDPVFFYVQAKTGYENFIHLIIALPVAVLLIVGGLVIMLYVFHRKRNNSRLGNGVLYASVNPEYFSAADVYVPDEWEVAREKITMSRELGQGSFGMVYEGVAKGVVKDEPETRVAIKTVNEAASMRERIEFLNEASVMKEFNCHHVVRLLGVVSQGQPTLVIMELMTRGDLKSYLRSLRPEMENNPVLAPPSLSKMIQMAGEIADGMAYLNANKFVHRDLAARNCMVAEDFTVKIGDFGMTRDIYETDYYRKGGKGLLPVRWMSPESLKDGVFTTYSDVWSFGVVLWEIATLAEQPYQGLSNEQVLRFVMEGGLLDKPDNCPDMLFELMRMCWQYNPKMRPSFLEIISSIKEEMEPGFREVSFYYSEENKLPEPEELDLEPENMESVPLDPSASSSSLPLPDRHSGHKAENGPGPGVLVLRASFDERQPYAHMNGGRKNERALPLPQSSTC

[9] = target: RPS6KB1 (human) (UniProt P23443)
Sequence of RPS6KB1 (human) (P23443 whole entry, looked up): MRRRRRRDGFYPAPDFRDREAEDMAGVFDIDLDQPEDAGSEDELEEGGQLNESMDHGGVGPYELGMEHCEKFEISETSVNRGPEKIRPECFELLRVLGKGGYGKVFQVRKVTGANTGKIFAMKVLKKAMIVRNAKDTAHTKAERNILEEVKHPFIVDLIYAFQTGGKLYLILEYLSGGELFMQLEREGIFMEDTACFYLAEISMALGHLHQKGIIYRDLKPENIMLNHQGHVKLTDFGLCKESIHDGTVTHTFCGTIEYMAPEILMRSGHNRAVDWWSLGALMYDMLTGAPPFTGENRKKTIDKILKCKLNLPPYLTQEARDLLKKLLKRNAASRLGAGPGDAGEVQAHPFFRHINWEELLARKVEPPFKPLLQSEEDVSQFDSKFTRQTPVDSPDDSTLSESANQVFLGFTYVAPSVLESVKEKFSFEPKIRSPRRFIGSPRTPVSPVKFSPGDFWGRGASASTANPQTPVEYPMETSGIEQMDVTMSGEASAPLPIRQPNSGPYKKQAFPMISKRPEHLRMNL

[10] = target: CAMK4 (human) (UniProt Q16566)
[11] = target: FGFR1 (human) (UniProt P11362)
[12] = target: CAMK2A or CAMK2B or CAMK2D or CAMK2G (human) (UniProt Q13555+Q13557+Q9UQM7+Q13554)
Sequence of CAMK2A or CAMK2B or CAMK2D or CAMK2G (human) (Q13554 whole entry, looked up): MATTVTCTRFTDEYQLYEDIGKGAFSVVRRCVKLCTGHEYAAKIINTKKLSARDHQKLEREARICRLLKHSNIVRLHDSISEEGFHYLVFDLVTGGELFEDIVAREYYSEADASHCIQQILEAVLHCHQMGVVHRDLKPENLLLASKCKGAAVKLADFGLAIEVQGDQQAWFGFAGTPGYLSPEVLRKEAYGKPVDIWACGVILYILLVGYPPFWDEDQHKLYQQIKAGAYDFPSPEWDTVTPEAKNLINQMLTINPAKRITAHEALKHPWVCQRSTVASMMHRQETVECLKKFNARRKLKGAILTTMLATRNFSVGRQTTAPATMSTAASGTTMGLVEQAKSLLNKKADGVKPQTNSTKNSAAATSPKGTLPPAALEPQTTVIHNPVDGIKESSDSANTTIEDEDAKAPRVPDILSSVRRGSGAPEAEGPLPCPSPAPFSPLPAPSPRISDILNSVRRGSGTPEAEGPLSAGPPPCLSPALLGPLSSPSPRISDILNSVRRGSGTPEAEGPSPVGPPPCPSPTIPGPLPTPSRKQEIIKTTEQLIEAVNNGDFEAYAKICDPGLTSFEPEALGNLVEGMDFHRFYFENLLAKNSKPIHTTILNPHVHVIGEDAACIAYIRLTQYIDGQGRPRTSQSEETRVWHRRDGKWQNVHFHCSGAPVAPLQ
Sequence of CAMK2A or CAMK2B or CAMK2D or CAMK2G (human) (Q13555 whole entry, looked up): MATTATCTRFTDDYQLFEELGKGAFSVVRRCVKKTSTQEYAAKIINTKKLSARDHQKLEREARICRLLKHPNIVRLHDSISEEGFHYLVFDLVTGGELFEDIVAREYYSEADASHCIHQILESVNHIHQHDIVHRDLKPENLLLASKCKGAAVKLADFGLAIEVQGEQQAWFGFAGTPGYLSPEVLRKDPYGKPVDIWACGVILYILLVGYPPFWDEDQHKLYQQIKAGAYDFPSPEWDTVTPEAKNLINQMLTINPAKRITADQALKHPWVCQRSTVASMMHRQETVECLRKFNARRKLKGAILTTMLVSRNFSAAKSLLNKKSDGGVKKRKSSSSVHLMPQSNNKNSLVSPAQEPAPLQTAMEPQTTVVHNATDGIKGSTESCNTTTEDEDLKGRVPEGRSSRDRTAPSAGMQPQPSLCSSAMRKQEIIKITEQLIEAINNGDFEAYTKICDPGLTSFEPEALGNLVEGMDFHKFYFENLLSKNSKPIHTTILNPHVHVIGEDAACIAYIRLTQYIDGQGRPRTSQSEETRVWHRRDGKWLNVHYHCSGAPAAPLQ
Sequence of CAMK2A or CAMK2B or CAMK2D or CAMK2G (human) (Q13557 whole entry, looked up): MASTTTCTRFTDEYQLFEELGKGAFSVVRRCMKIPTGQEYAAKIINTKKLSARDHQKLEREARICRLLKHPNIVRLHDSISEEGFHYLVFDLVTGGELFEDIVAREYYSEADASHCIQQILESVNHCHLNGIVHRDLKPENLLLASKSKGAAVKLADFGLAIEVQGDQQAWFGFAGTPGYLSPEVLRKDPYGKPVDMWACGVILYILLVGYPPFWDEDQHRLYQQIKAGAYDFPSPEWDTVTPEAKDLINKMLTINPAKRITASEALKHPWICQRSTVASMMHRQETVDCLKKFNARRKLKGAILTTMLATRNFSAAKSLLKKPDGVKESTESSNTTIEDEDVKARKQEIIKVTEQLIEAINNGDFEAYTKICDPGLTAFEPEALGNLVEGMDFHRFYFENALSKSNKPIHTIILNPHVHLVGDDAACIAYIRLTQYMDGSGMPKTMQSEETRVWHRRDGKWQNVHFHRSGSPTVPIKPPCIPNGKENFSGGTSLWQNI
Sequence of CAMK2A or CAMK2B or CAMK2D or CAMK2G (human) (Q9UQM7 whole entry, looked up): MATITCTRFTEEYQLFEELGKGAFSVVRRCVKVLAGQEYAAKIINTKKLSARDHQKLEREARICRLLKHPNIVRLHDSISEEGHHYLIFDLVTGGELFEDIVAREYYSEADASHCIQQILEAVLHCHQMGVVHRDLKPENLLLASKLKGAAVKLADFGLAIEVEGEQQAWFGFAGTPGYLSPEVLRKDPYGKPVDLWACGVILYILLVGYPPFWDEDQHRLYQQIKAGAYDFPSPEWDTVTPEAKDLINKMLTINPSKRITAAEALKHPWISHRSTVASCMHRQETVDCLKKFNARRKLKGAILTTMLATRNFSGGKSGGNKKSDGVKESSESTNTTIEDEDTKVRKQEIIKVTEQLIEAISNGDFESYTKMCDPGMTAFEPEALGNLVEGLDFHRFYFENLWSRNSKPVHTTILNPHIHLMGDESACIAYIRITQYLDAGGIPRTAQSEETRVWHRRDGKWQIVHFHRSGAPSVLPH

[13] = target: MAP3K7 (human) (UniProt O43318)
[14] = target: AKT1 (human) (UniProt P31749)
[15] = target: DYRK1A (human) (UniProt Q13627)
[16] = target: SGK1 (human) (UniProt O00141)
[17] = target: PAK2 (human) (UniProt Q13177)
[18] = target: INSR (human) (UniProt P06213)
[19] = target: MAPKAPK5 (human) (UniProt Q8IW41)
[20] = target: CHEK1 (human) (UniProt O14757)

Sequence of PRKG1 (human) (Q13976 whole entry, looked up): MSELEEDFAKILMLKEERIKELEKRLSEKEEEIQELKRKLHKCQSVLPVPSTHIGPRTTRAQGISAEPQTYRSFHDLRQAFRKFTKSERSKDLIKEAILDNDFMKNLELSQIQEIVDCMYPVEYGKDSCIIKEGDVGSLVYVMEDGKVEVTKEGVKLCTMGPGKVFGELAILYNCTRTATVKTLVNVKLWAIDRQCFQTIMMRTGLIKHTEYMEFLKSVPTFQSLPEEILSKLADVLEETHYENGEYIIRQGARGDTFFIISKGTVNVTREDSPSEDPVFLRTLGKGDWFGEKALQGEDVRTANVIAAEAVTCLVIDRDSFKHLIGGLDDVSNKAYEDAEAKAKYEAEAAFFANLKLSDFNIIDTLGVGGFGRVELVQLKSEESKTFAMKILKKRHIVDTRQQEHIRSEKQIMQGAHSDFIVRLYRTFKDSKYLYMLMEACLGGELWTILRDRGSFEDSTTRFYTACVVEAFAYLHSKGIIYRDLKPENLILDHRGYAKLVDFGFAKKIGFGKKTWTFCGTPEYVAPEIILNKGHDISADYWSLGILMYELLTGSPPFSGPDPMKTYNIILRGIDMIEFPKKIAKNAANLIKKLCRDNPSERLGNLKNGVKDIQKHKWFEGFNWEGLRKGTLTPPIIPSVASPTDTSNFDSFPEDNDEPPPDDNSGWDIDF

inhibition [1]: -18% | inhibition [2]: -15% | inhibition [3]: -15% | inhibition [4]: 0% | inhibition [5]: -11% | inhibition [6]: -13% | inhibition [7]: -17% | inhibition [8]: -12% | inhibition [9]: -12% | inhibition [10]: -11% | inhibition [11]: -11% | inhibition [12]: -179% | inhibition [13]: -24% | inhibition [14]: -11% | inhibition [15]: -13% | inhibition [16]: -17%
SMILES: C[C@@H](NC(=O)c1c[nH]c2ncc(-c3nn(C)c4cc(Cl)ccc34)nc12)C(=O)N1CC(C#N)C1

inhibition [17]: -29% | inhibition [9]: -12% | inhibition [18]: -11% | inhibition [12]: -35%
SMILES: CC[C@@H](NC(=O)c1c[nH]c2ncc(-c3nn(C)c4cc(Cl)ccc34)nc12)C(=O)N1CC(C#N)C1

Continued, compound first:

SMILES: C[C@@H](NC(=O)c1c[nH]c2ncc(-c3cn(C)c4cc(Cl)ccc34)nc12)C(=O)N1CC(C#N)C1
inhibition [2]: -18% | inhibition [9]: -14% | inhibition [12]: -53%

SMILES: C[C@@H](NC(=O)c1c[nH]c2ncc(-c3ncn4cc(F)cc(F)c34)nc12)C(=O)N1CC(C#N)C1
inhibition [19]: -12% | inhibition [4]: 0% | inhibition [9]: -42% | inhibition [12]: -51%

SMILES: C[C@@H](NC(=O)c1c[nH]c2ncc(-c3nn(C)c4cc(Cl)cc(F)c34)nc12)C(=O)N1CC(C#N)C1
inhibition [20]: -28% | inhibition [8]: -30% | inhibition [9]: -33% | inhibition [10]: -24% | inhibition [12]: -52% | inhibition [13]: -11%
